The record followed here is article PMC11931356, “New benzimidazole derivatives containing hydrazone group as anticancer agents: Inhibition of carbonic anhydrase IX and molecular docking studies” (Archiv Der Pharmazie, 2025).

The test system of experiment [1] is L929 (healthy mouse fibroblast cell line). Put plainly: MTT cell viability assay, L929. It counts as cell-based. Particulars: max 100 µM, mean ± SD. The method, then:
(§1) Cell lines from the American Type Culture Collection (ATCC) were used to test the human breast adenocarcinoma cell line (MCF7), rat glial tumor (C6), healthy mouse fibroblast cell line (L929), and colon cancer (HT29). Cells were combined with solutions of 1% penicillin (Sigma Aldrich), 10% fetal bovine serum (FBS; Sigma Aldrich), and 89% DMEM (Dulbecco's modified Eagle's medium; Gibco, Thermo Fisher Scientific). The cells were incubated at 37°C with 95% humidity and 5% CO2 to allow the medium to develop.
(§2) All compounds were examined for their cytotoxic effects on the L929, HT29, MCF7, and C6 cell lines using MTT assay. Approximately 1 × 10^4 cells were seeded in each well. Cells were allowed to adhere for 24 h and then the syntheses were applied at different concentrations. All syntheses were run in three repetitions. Wells with a maximum of 100 µM product were incubated for 24 h. Cisplatin was used as the positive control, and all wells devoid of specimens served as negative controls. To identify metabolically active cells, the wells were incubated for 3 h at 37°C after being treated with MTT solution. Following the MTT interaction, DMSO solution was added to the wells after they had been drained. This solution was used to dissolve the formazan crystals, and a color shift indicated how many live cells were present in each well.
For orientation: Tetrazolium dyes change colour on reduction, which living cells bring about.

The test system of a further experiment is HT29 (colon cancer). The experiment in a line: MTT cell viability assay, HT29. It counts as cell-based. Particulars: max 100 µM, mean ± SD. The method, then: as §1, §2
Experiment [2] relates to human breast adenocarcinoma cell line (MCF7). The experiment in a line: MTT cell viability assay, MCF7. It counts as cell-based. Particulars: max 100 µM, mean ± SD. The procedure:
as §1, §2

The subject of another experiment is rat glial tumor (C6). The experiment in a line: MTT cell viability assay, C6. It counts as cell-based. Particulars: 24 h incubation, max 100 µM, mean ± SD. The method, then: as §1, §2
Experiment [3] deals with BAX. Put plainly: RT-PCR expression profile, BAX in HT29. It is filed as cell-based. Particulars: HT29 cell lines, effective dose, 24 h, vs control group, p < 0.05. The procedure:
(§3) Total RNA was first isolated from the cells to which effective doses of compounds 3d and/or 3j were applied at the 24th hour, by the kit protocols, and then cDNA was synthesized from this total RNA. The expression profiles of Caspase 3, BAX, and BCL‐2 genes from the cDNA samples obtained were analyzed with the RT‐PCR device by the kit protocol. Statistical analysis of the data with the ΔΔCT method was performed using the “RT2 profiler RT‐PCR Array Data Analysis version 3.5” (http://pcrdataanalysissabiosciences.com/pcr/arrayanalysis.php) software.

Experiment [4] concerns BAX. Put plainly: RT-PCR expression profile, BAX in L929. It counts as cell-based, mouse. Particulars: L929 cell lines, effective dose, 24 h, vs control group, p < 0.05. The method, then: as §3
For experiment [5], the system named is Ki67. Put plainly: Immunofluorescent microscope analysis, Ki67 in HT29. It counts as cell-based. Particulars: HT29 cell line, compared with the cisplatin-treated group. The procedure:
(§4) Immunofluorescent microscope analysis was performed as in the previous study.^[ [33] ^]

Experiment [6] has as its system Ki67. Put plainly: Immunofluorescent microscope analysis, Ki67 in L929. Particulars: L929 cell line, compared with the cisplatin-treated group. It is filed as cell-based, mouse. The procedure:
as §4

For a further experiment, the system named is CA IX enzyme. Put plainly: Carbonic anhydrase IX inhibition assay (ELISA kit, CA IX protein level). Particulars: for Concentration (CA IX protein level, ELISA): ELISA kit, Control 250,225, lower = stronger inhibition, p < 0.001; for Concantration hCA IX: supplement table, same ELISA values. It counts as biochemical, human. The procedure: The CA IX inhibitor acetazolamide was used as a positive control.
CA‐IX level was measured using the DCA900, R&D Systems ELISA Kit. In brief, 100 μL samples were incubated with 50 μL assay buffer for 2 h at room temperature (RT) in a 96‐well plate. The well was then washed four times with 400 µL wash buffer. After 200 µL of a conjugate buffer incubated at room temperature for 2 hours, the plate was washed four times with wash buffer. It was then incubated with 200 µL of substrate buffer for 30 min at room temperature. After washing, 50 µL of the stop solution was used to terminate the reaction. The plate was read at 450 nm using an Epoch™ microplate spectrophotometer (BioTek). The concentration of CA IX protein in each sample was calculated using a standard curve.
(In an ELISA, binding on a coated surface is turned into a signal by an enzyme label.)

For experiment [7], the system named is BAX. Put plainly: RT-PCR expression profile, BAX in MCF7. It is filed as cell-based, human. Particulars: MCF7 cell lines, effective dose, 24 h, vs control group, p < 0.05. The method, then: as §3
Experiment [8] relates to BAX. The experiment in a line: RT-PCR expression profile, BAX in C6. It counts as cell-based, rat. Particulars: C6 cell lines, effective dose, 24 h, vs control group, p < 0.05. The procedure: as §3
The subject of another experiment is Caspase 3. The experiment in a line: RT-PCR expression profile, Caspase 3 in C6. It counts as cell-based, rat. Particulars: C6 cell lines, effective dose, 24 h, vs control group, p < 0.05. The procedure:
as §3

The subject of experiment [9] is Ki67. The experiment in a line: Immunofluorescent microscope analysis, Ki67 in C6. It counts as cell-based, rat. Particulars: C6 cell line, compared with the cisplatin-treated group. The procedure: as §4
In experiment [10] the test system is Ki67. The experiment in a line: Immunofluorescent microscope analysis, Ki67 in MCF7. It counts as cell-based, human. Particulars: MCF7 cell line, compared with the cisplatin-treated group. The method, then: as §4
The mark [11] stands for this setting: Mus musculus, L929, 24 h incubation.
Where [12] appears, read: Homo sapiens, HT-29, 24 h incubation.
Where [13] appears, read: Homo sapiens, MCF7, 24 h incubation.

The term IC50 denotes the concentration at which inhibition is half-maximal. With `Cc1ccc(C=NNC(=O)c2ccc(-c3nc4cc(C#N)ccc4[nH]3)cc2)s1` [Compound 3j, 4‐(5‐Cyano‐1H‐benzo[d]imidazol‐2‐yl)‐N′‐[(5‐methylthiophen‐2‐yl)methylene]benzohydrazide], the 50% inhibitory concentration (IC50) in experiment [1] (setting [11]) is > 100 µM; with HT29 (colon cancer) (setting [12]) it was 45.8 ± 15.6 µM; in experiment [2] (setting [13]), > 100 µM; in the experiment with rat glial tumor (C6) (Rattus norvegicus), > 100 µM. Also, the BAX expression increase with BAX [3] is reported as 3.07 times; in the experiment on BAX [4] it was 105.7 times. Besides, the Ki67 immunolocalisation rate entry with Ki67 [5] and with Ki67 [6] was “significantly decreased” each time. The “Concentration (CA IX protein level, ELISA)” value (“Concentration” for short) with CA IX enzyme is listed as 82,745 pg/mL. In addition, the “Concantration hCA IX” value in the experiment on CA IX enzyme is on record as 82,745 pg/ml.
Regarding `N#Cc1ccc2[nH]c(-c3ccc(C(=O)NN=Cc4ccc([N+](=O)[O-])s4)cc3)nc2c1` [Compound 3i, 4‐(5‐Cyano‐1H‐benzo[d]imidazol‐2‐yl)‐N′‐[(5‐nitrothiophen‐2‐yl)methylene]benzohydrazide], the IC50 (in experiment [1] (setting [11]); in the experiment with HT29 (colon cancer) (setting [12]); in [2] (setting [13]); with rat glial tumor (C6) (Rattus norvegicus)) was > 100 µM each time. Moreover, the “Concentration” value in the experiment with CA IX enzyme is 92,225 pg/mL. In the experiment on CA IX enzyme, the “Concantration hCA IX” value is on record as 92,225 pg/ml.
Take `N.N.[Cl][Pt][Cl]` [Cisplatin, reference compound]: the IC50 in experiment [1] (24 h incubation) was 88.8 ± 6.4 µM; with HT29 (colon cancer) (24 h incubation), 59.4 ± 12.6 µM; in experiment [2] (24 h incubation), 29.6 ± 7.6 µM; in the experiment on rat glial tumor (C6) it was 39.4 ± 6.4 µM.
“4‐(5‐Cyano‐1H‐benzo[d]imidazol‐2‐yl)‐N′‐[(imidazol‐2‐yl)methylene]benzohydrazide [Compound 3f]”: the IC50 (in experiment [1] (24 h incubation); in the experiment with HT29 (colon cancer) (24 h incubation); in experiment [2] (24 h incubation); with rat glial tumor (C6)) was > 100 µM in each case. The “Concentration” value in the experiment on CA IX enzyme is listed as 93,975 pg/mL. The “Concantration hCA IX” value with CA IX enzyme was 93,975 pg/ml.
Turning to `Cc1ccc(C=NNC(=O)c2ccc(-c3nc4cc(C#N)ccc4[nH]3)cc2)o1` [Compound 3b, 4‐(5‐Cyano‐1H‐benzo[d]imidazol‐2‐yl)‐N′‐[(5‐methylfuran‐2‐yl)methylene]benzohydrazide], the concentration for half-maximal inhibition (IC50) in experiment [1] (setting [11]) was > 100 µM; in the experiment on HT29 (colon cancer) (setting [12]), 89.6 ± 5.74 µM; in experiment [2] (setting [13]), 88.4 ± 2.18 µM; with rat glial tumor (C6) (Rattus norvegicus), > 100 µM. For the same molecule, in the experiment with CA IX enzyme, the “Concentration” value is listed as 175,225 pg/mL. In the experiment with CA IX enzyme, the “Concantration hCA IX” value is 175,225 pg/ml.
Take `N#Cc1ccc2[nH]c(-c3ccc(C(=O)NN=Cc4ccc([N+](=O)[O-])o4)cc3)nc2c1` [Compound 3c, 4‐(5‐Cyano‐1H‐benzo[d]imidazol‐2‐yl)‐N′‐[(5‐nitrofuran‐2‐yl)methylene]benzohydrazide]: the IC50 in experiment [1] (setting [11]) is > 100 µM; in the experiment on HT29 (colon cancer) (setting [12]) it was 90.6 ± 12.1 µM; in experiment [2] (setting [13]), > 100 µM; in the experiment on rat glial tumor (C6) (Rattus norvegicus), > 100 µM. Also, the “Concentration” value with CA IX enzyme is listed as 150,225 pg/mL. Further, in the experiment on CA IX enzyme, the “Concantration hCA IX” value is reported as 150,225 pg/ml.
For `Cc1ccsc1C=NNC(=O)c1ccc(-c2nc3cc(C#N)ccc3[nH]2)cc1` [Compound 3d, 4‐(5‐Cyano‐1H‐benzo[d]imidazol‐2‐yl)‐N′‐[(3‐methylthiophen‐2‐yl)methylene]benzohydrazide], the IC50 in experiment [1] (setting [11]) was > 100 µM; with HT29 (colon cancer) (setting [12]), 39.1 ± 8.28 µM; in experiment [2] (setting [13]), 25.6 ± 16.4 µM; in the experiment on rat glial tumor (C6) (Rattus norvegicus), 20.5 ± 8.34 µM. For the same molecule, the BAX expression increase is given as 6.59 times in the experiment with BAX [3], 12.55 times in the experiment with BAX [7] and 4.06 times in the experiment on BAX [8]. Besides, the “Caspase 3 expression increase” value in the experiment on Caspase 3 came to 2.75 times. In addition, the Ki67 immunolocalisation rate entry with Ki67 [9], with Ki67 [10], in the experiment with Ki67 [5] and in the experiment with Ki67 [6] was “significantly decreased” in each case. Further, the “Concentration” value in the experiment on CA IX enzyme was 83,975 pg/mL. The “Concantration hCA IX” value with CA IX enzyme is 83,975 pg/ml.
For the molecule `N#Cc1ccc2[nH]c(-c3ccc(C(=O)NN=Cc4cccs4)cc3)nc2c1` [Compound 3g, 4‐(5‐Cyano‐1H‐benzo[d]imidazol‐2‐yl)‐N′‐[(thiophen‐2‐yl)methylene]benzohydrazide], the IC50 (in [1] (setting [11]); in the experiment with HT29 (colon cancer) (setting [12]); in experiment [2] (setting [13]); in the experiment with rat glial tumor (C6) (Rattus norvegicus)) was > 100 µM each time. Further, the “Concentration” value in the experiment with CA IX enzyme is reported as 95,745 pg/mL. Besides, the “Concantration hCA IX” value in the experiment with CA IX enzyme is reported as 95,745 pg/ml.
As for `N#Cc1ccc2[nH]c(-c3ccc(C(=O)NN=Cc4ccncc4)cc3)nc2c1` [Compound 3e, 4‐(5‐Cyano‐1H‐benzo[d]imidazol‐2‐yl)‐N′‐[(pyridine‐4‐yl)methylene]benzohydrazide], the IC50 (in [1] (setting [11]); with HT29 (colon cancer) (setting [12]); in [2] (setting [13]); with rat glial tumor (C6) (Rattus norvegicus)) was > 100 µM each time. Moreover, the “Concentration” value with CA IX enzyme was 120,225 pg/mL. For the same molecule, the “Concantration hCA IX” value in the experiment on CA IX enzyme is 120,225 pg/ml.
`N#Cc1ccc2[nH]c(-c3ccc(C(=O)NN=Cc4cccnc4)cc3)nc2c1` [Compound 3h, 4‐(5‐Cyano‐1H‐benzo[d]imidazol‐2‐yl)‐N′‐[(pyridine‐3‐yl)methylene]benzohydrazide]: the IC50 (in experiment [1] (setting [11]); in the experiment with HT29 (colon cancer) (setting [12]); in [2] (setting [13]); with rat glial tumor (C6) (Rattus norvegicus)) was > 100 µM each time. Also, the “Concentration” value in the experiment with CA IX enzyme is 119,425 pg/mL. Also, the “Concantration hCA IX” value in the experiment with CA IX enzyme was 119,425 pg/ml.
In the case of `N#Cc1ccc2[nH]c(-c3ccc(C(=O)NN=Cc4ccco4)cc3)nc2c1` [Compound 3a, 4‐(5‐Cyano‐1H‐benzo[d]imidazol‐2‐yl)‐N′‐[(furan‐2‐yl)methylene]benzohydrazide], the IC50 in experiment [1] (setting [11]) came out at 84.6 ± 9.6 µM; with HT29 (colon cancer) (setting [12]), 71.8 ± 3.68 µM; in experiment [2] (setting [13]) it was 86.4 ± 1.28 µM; in the experiment with rat glial tumor (C6) (Rattus norvegicus), 98.9 ± 7.94 µM.
